Columns and labels:
[1] = Clinical Trial 2: randomized, double-blind, placebo-controlled study in individuals with severe Raynaud's; format: in vivo; conditions: titration scheme
Procedure: A randomized, double-blind, placebo-controlled study is conducted in individuals with severe Raynaud's. Individuals are administered Compound 1 using a titration scheme. Compound 1 is determined to be efficacious for the treatment and/or prevention of Raynaud's.

[2] = Clinical Trial 1: 22-week randomized, double-blind, placebo-controlled study with dose titration; format: in vivo
Procedure: A 22-week randomized, double-blind, placebo-controlled study with a dose titration period of up to 9 weeks was conducted. Sixty-one individuals were randomized 2:1 Compound 1 to placebo. Right Heart Catheterization (RHC) measurements were obtained prior to study Day 1 of the dose titration period and at Week 22. The following values were obtained and recorded: pulmonary artery pressure (PAP) (systolic, diastolic, and mean), heart rate (HR), right atrial pressure (RAP), pulmonary capillary wedge pressure (PCWP) right ventricular pressure (RVP) and cardiac output (CO), pulmonary vascular resistance (PVR), arterial and mixed venous oxygen saturation […] (if applicable). Systemic vascular resistance (SVR) was estimated from blood pressure measurements.
Primary efficacy endpoints for the study were: a) change from baseline in PVR after 22 weeks of treatment, and b) change from baseline in 6 MWD after 22 weeks of treatment. Compound 1 was administered as a capsule in 0.01, 0.02, 0.03, 0.04, and 0.10 mg dose strengths. The starting dose of Compound 1 was 0.01 mg twice daily. The dose of Compound 1 was titrated according to individual tolerability. If the initial dose was tolerated (0.01 mg twice daily), then the dose was increased once a week in the following fashion: 0.02 mg twice daily, 0.03 mg twice daily, 0.04 mg twice daily, 0.06 mg twice daily, 0.08 mg, 0.1 mg twice daily, 0.2 mg twice daily and 0.3 mg twice daily. The dose was optionally escalated to a possible maximum total daily dose of 0.6 mg (0.3 mg twice daily), pending tolerability.

[3] = intravenous; cited from earlier work
[4] = intravenous, over 9 weeks, cited from earlier work
[5] = oral, titrated to the highest tolerated dose; individuals with systemic sclerosis; cited from earlier work
[6] = after 22 weeks of treatment, capsule, titrated from 0.01 mg twice daily up to 0.3 mg twice daily

With `O=C(O)COC[C@H]1CC[C@H](COC(=O)N(c2ccccc2)c2ccc(Cl)cc2)CC1` [Compound 1, 2-(((1r,4r)-4-(((4-chlorophenyl)(phenyl)carbamoyloxy)methyl)cyclohexyl)methoxy)acetic acid] the “efficacy for the treatment and/or prevention of Raynaud's” value [1] was “efficacious”, the “adverse events observed in the study” value ([2]; 22-week study, titrated up to 0.6 mg total daily dose) was “consistent with other prostacyclin treatments for the management of PAH” and the “6-minute walk distance (6MWD)” value [2, 6] was “numerical improvement”. For the same molecule, the “change from baseline in pulmonary vascular resistance (PVR) compared to placebo (primary endpoint)” value [2, 6] was “statistically significant change from baseline”.
In the case of `CCCCC[C@H](O)/C=C/[C@@H]1[C@H]2C/C(=C/CCCC(=O)O)O[C@H]2C[C@H]1O` [epoprostenol], the “frequency and duration of Raynaud phenomenon attacks” value [3] is listed as “reduced frequency and duration” and the “loss in clinical response, time after the last infusion” value [3] is listed as 8-10 weeks.
For `CC#CCC(C)[C@H](O)/C=C/[C@@H]1[C@H]2C/C(=C/CCCC(=O)O)C[C@H]2C[C@H]1O` (stereo partly drawn) [iloprost], the improve severity score ([4]; vs. 19.7% comparator) is given as 34.8% and the “reduce weekly Raynaud phenomenon attacks” value ([4]; vs. 22.2% comparator) is given as 39.1%.
For `CC(C)N(CCCCOCC(=O)NS(C)(=O)=O)c1cnc(-c2ccccc2)c(-c2ccccc2)n1` [selexipag], the “primary efficacy endpoint: reduction in the number of Raynaud's phenomenon attacks per week versus placebo” value [5] is listed as “did not meet the primary efficacy endpoint”.

— patent publication US20200368190A1, “METHODS OF TREATMENT” (Arena Pharmaceuticals, Inc., priority 2017, published 2020)
